Experimental data published in ChEMBL document CHEMBL1201862, “PubChem BioAssay data set” (2004).
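Values below derive from 48-hour exposures of cells grown in 96-well plates, with endpoints linearly interpolated between the two concentrations bracketing the appropriate inhibition level. At the GI50, growth is halved.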 The source made the active and inactive calls. Rule as the data show it: active = GI50 up to about 1.1 µM and inactive = higher.

Legend:
Assay in all cases: DTP human tumour cell line panel, 48 h
[1] = system: LOX IMVI
[2] = system: SN12C
[3] = system: SF-268
[4] = system: HL-60
[5] = system: OVCAR-3
[6] = system: OVCAR-4
[7] = system: NCI-H460
[8] = system: RPMI-8226
[9] = system: A498
[10] = system: MOLT-4
[11] = system: NCI-H23
[12] = system: HT-29
[13] = system: OVCAR-8
[14] = system: SNB-78
[15] = system: SR
[16] = system: BT-549
[17] = system: MDA-MB-231
[18] = system: T47D
[19] = system: NCI/ADR-RES
[20] = system: MCF7

| SMILES | GI50 [1] | GI50 [2] | GI50 [3] | GI50 [4] | GI50 [5] | GI50 [6] | GI50 [7] | GI50 [8] | GI50 [9] | GI50 [10] | GI50 [11] | GI50 [12] | GI50 [13] | GI50 [14] | GI50 [15] | GI50 [16] | GI50 [17] | GI50 [18] | GI50 [19] | GI50 [20] |
| --- | --- | --- | --- | --- | --- | --- | --- | --- | --- | --- | --- | --- | --- | --- | --- | --- | --- | --- | --- | --- |
| NC(=O)c1csc(C2OC(COP(=O)(O)CP(=O)(O)OCC3OC(n4cnc5c(N)ncnc54)C(O)C3O)C(O)C2O)n1 (centres undefined) | 97.1 µM (inactive) | > 100 µM (inactive) | > 100 µM (inactive) | > 100 µM (inactive) | > 100 µM (inactive) | > 100 µM (inactive) | > 100 µM (inactive) | > 100 µM (inactive) | > 100 µM (inactive) | > 100 µM (inactive) | > 100 µM (inactive) | 87.7 µM (inactive) | > 100 µM (inactive) | > 100 µM (inactive) |  |  |  |  |  |  |
| OCCN(CCO)c1cccc(N(CCO)CCO)n1 | > 100 µM (inactive) | > 10 µM (inactive) | > 100 µM (inactive) | > 100 µM (inactive) | > 100 µM (inactive) | > 100 µM (inactive) | > 100 µM (inactive) | > 100 µM (inactive) | > 100 µM (inactive) | > 100 µM (inactive) |  |  | > 100 µM (inactive) | > 100 µM (inactive) | > 100 µM (inactive) |  |  |  |  |  |
| CCCCN(CCCC)CC(C(=O)Nc1ccccc1)/C(C)=N\NC(=O)c1ccncc1 (centres undefined) | 81.5 µM (inactive) | > 100 µM (inactive) | > 100 µM (inactive) | 98.2 µM (inactive) | 64.7 µM (inactive) | > 100 µM (inactive) | 46 µM (inactive) | > 100 µM (inactive) |  | > 100 µM (inactive) | > 100 µM (inactive) | > 100 µM (inactive) | > 100 µM (inactive) | > 100 µM (inactive) | > 100 µM (inactive) |  |  |  |  |  |
| NS(=O)(=O)c1cc2c(cc1Cl)NC(C(=O)c1cc(=O)c3ccc(O)cc3o1)=NS2(=O)=O | > 100 µM (inactive) | > 100 µM (inactive) | > 100 µM (inactive) | > 100 µM (inactive) | > 100 µM (inactive) | > 100 µM (inactive) | > 100 µM (inactive) | > 100 µM (inactive) | > 100 µM (inactive) | > 100 µM (inactive) | > 100 µM (inactive) | > 100 µM (inactive) | > 100 µM (inactive) | > 100 µM (inactive) | > 100 µM (inactive) |  |  |  |  |  |
| COc1ccccc1C(=O)NCC1CCCN2CCCCC12 (centres undefined) | > 100 µM (inactive) | > 100 µM (inactive) | > 100 µM (inactive) | > 100 µM (inactive) | > 100 µM (inactive) | > 100 µM (inactive) | > 100 µM (inactive) | > 100 µM (inactive) | > 100 µM (inactive) | > 100 µM (inactive) | > 100 µM (inactive) | > 100 µM (inactive) | > 100 µM (inactive) |  | > 100 µM (inactive) | > 100 µM (inactive) | > 100 µM (inactive) | > 100 µM (inactive) | > 100 µM (inactive) | > 100 µM (inactive) |
| CC12CCCCC1C(=O)C2(Cl)Cl (centres undefined) | 2.64 µM (inactive) | 2.98 µM (inactive) | 2.7 µM (inactive) | 1.76 µM (inactive) | 1.77 µM (inactive) | 3.49 µM (inactive) | 2.28 µM (inactive) | 1.31 µM (inactive) | 3.94 µM (inactive) | 1.84 µM (inactive) | 2.39 µM (inactive) | 1.3 µM (inactive) | 2.04 µM (inactive) | 4.44 µM (inactive) |  |  |  |  |  |  |
| CCn1c(=O)nc2n(-c3ccccc3)c3ccccc3nc-2c1=O |  | 20.6 µM (inactive) | 17.3 µM (inactive) | 10.7 µM (inactive) | 3.96 µM (inactive) | 12.6 µM (inactive) | 13.3 µM (inactive) | 21.8 µM (inactive) | 47.4 µM (inactive) | 17.3 µM (inactive) | 25.4 µM (inactive) |  | 19.5 µM (inactive) | 49.8 µM (inactive) |  |  |  |  |  |  |
| CCOC(=O)c1cc2c(cn1)[nH]c1cccc(N)c12 | > 100 µM (inactive) | > 100 µM (inactive) | > 100 µM (inactive) | 14.6 µM (inactive) | > 100 µM (inactive) | > 100 µM (inactive) | > 100 µM (inactive) |  |  | 61.5 µM (inactive) | > 100 µM (inactive) | > 100 µM (inactive) | > 100 µM (inactive) | > 100 µM (inactive) | > 100 µM (inactive) |  |  |  |  |  |
| Cn1ncc2cc3c(Nc4ccc(Cl)cc4)cccc3nc21 | 14.9 µM (inactive) | 18.1 µM (inactive) | 15.8 µM (inactive) | 11 µM (inactive) | 12.7 µM (inactive) | 11.8 µM (inactive) | 8.61 µM (inactive) | 10.9 µM (inactive) |  | 6.82 µM (inactive) | 22.2 µM (inactive) |  | 19 µM (inactive) | 34 µM (inactive) |  |  |  |  |  |  |
| CC(C)(C)NCC(O)c1ccc(O)c(CO)n1 (centres undefined) | > 100 µM (inactive) | > 100 µM (inactive) | > 100 µM (inactive) | > 100 µM (inactive) | > 100 µM (inactive) | > 100 µM (inactive) | > 100 µM (inactive) | > 100 µM (inactive) | > 100 µM (inactive) | > 100 µM (inactive) | > 100 µM (inactive) | > 100 µM (inactive) | > 100 µM (inactive) |  | > 100 µM (inactive) | > 100 µM (inactive) | > 100 µM (inactive) | > 100 µM (inactive) | > 100 µM (inactive) | > 100 µM (inactive) |
| CC(C)(C)C(=O)Cc1cc2c(cc1C(=O)O)S(=O)(=O)NC(C(C)(C)C)=C2 |  | > 100 µM (inactive) | > 100 µM (inactive) | > 100 µM (inactive) | > 100 µM (inactive) | > 100 µM (inactive) | > 100 µM (inactive) | > 100 µM (inactive) | > 100 µM (inactive) | > 100 µM (inactive) | > 100 µM (inactive) | > 100 µM (inactive) | > 100 µM (inactive) | > 100 µM (inactive) | > 100 µM (inactive) |  |  |  |  |  |
| O=c1[nH]c2cccccc-2c1-c1nc2ccccc2[nH]1 | 14.9 µM (inactive) | 31.6 µM (inactive) | 14.9 µM (inactive) | 36.6 µM (inactive) | > 10 µM (inactive) | 20.6 µM (inactive) | 7.01 µM (inactive) | 28.5 µM (inactive) |  |  | 31.3 µM (inactive) | 52.2 µM (inactive) | 26.5 µM (inactive) | 25.7 µM (inactive) | 34.2 µM (inactive) |  |  |  |  |  |
| COc1ccccc1C(N)c1ccccc1 (centres undefined) | > 100 µM (inactive) | > 100 µM (inactive) | > 100 µM (inactive) | > 100 µM (inactive) | > 100 µM (inactive) | > 100 µM (inactive) | > 100 µM (inactive) | > 100 µM (inactive) | > 100 µM (inactive) | > 100 µM (inactive) | > 100 µM (inactive) | > 100 µM (inactive) | > 100 µM (inactive) | > 100 µM (inactive) |  |  |  |  |  |  |
| Cc1ccc(NC(=O)CCC(=O)C2CC(=O)CC/C2=N\NC(=O)c2cc3ccccc3cc2O)cc1C (centres undefined) |  | 48.9 µM (inactive) | 17.3 µM (inactive) | 4.35 µM (inactive) | 14.8 µM (inactive) | 16.4 µM (inactive) | 25.2 µM (inactive) | 25 µM (inactive) | 38.4 µM (inactive) | 17.7 µM (inactive) | 15.7 µM (inactive) | 38.5 µM (inactive) | 24.7 µM (inactive) | 28.6 µM (inactive) | 22.1 µM (inactive) |  |  |  |  |  |
| COc1ccc(Cc2nccc3cc(OC)c(OC)cc23)cc1 |  | 36.9 µM (inactive) | 65.5 µM (inactive) |  | 50.4 µM (inactive) | 36.5 µM (inactive) | 90.6 µM (inactive) | 20.9 µM (inactive) | 42.2 µM (inactive) | 39.4 µM (inactive) | 37.2 µM (inactive) | 67.9 µM (inactive) | 91.8 µM (inactive) | > 100 µM (inactive) |  |  |  |  |  |  |
| Nc1cc2c(nc3c4ccccc4c(N)cc3[n+]2-c2cccc3ccccc23)c2ccccc12.Nc1cc2c(nc3c4ccccc4ccc3[n+]2-c2cccc3ccccc23)c2ccccc12 | 1.97 µM (inactive) | 2.49 µM (inactive) | 3.37 µM (inactive) | 1.41 µM (inactive) | 0.593 µM (active) | 1.71 µM (inactive) | 0.377 µM (active) | 0.146 µM (active) | 3.48 µM (inactive) | 0.75 µM (active) | 1.15 µM (inactive) | 1.36 µM (inactive) | 0.714 µM (active) |  | 1.24 µM (inactive) | 4.11 µM (inactive) | 0.276 µM (active) | 0.687 µM (active) | 8.18 µM (inactive) | 0.507 µM (active) |
| COC(=O)c1cc(C)n(NC(=O)OC(C)(C)C)c1C | > 100 µM (inactive) | > 100 µM (inactive) | > 100 µM (inactive) | > 100 µM (inactive) | > 100 µM (inactive) |  | > 100 µM (inactive) | > 100 µM (inactive) | > 100 µM (inactive) | > 100 µM (inactive) | > 100 µM (inactive) | > 100 µM (inactive) | > 100 µM (inactive) | 95.1 µM (inactive) |  |  |  |  |  |  |
| CCCCCCCCCCCCCCCC[N+](C)(C)Cc1ccc(C[N+](C)(C)CCCCCCCCCCCCCCCC)cc1 | 2.74 µM (inactive) | 1.95 µM (inactive) | 2.38 µM (inactive) | 2.3 µM (inactive) | 2.54 µM (inactive) | 3.23 µM (inactive) | 2.51 µM (inactive) | 2.63 µM (inactive) | > 100 µM (inactive) | 1.78 µM (inactive) | 1.88 µM (inactive) | 2.28 µM (inactive) | 2.04 µM (inactive) | 2.73 µM (inactive) | 2.39 µM (inactive) |  |  |  |  |  |
